Results taken from US11661419B2, “Benzimidazole derivative compounds and uses thereof” (Pfizer Inc., priority 2019, dated 2023).

Experiments:
[1] = test system: IL-2 in activated CD4+ human T-cells; experiment: IL-2 inhibition in supernatants from activated CD4+ human T-cells (cisbio HTRF); assay type: cell-based; conditions: T-cell; geometric mean of count n; CD3/CD28-expanded human CD4+ T cells stimulated with ImmunoCult, 20 to 24 hrs
Procedure: IL-2-Inhibition Activity, IC50 (uM)
IL-2 inhibition activity in supernatants from activated CD4+ human T-cells was determined by measuring the effect of a test compound on the activity using the cisbio HTRF™ technology.
Human CD4+ T cells were activated with CD3/CD28 for 3 days and expanded for an additional 4-6 days (7 to 9 days total). On day 0, frozen CD4+ T cells were thawed, treated with CD3/CD28 Dynabeads, and incubated at 37° C./5% CO2. On day 3, the beads were removed, and the cells were diluted to 5×10^5 cells/cm^2, placed in G-Rex10 flask, and incubated at 37° C./5% CO2. On day 7 to day 9 the cells were removed from the G-Rex flasks, counted and diluted back to 1×10^6 cells/ml in standard tissue culture flask.
The expanded CD4+ T-cells were centrifuged at 300×g for 10 minutes and resuspended to 0.5 million cells per ml (30,000 cells/well). 60 μl of CD4+ T cells were added per well to a 384 well plate containing 0.1 μL of varying concentrations of test compound in DMSO. The plates were incubated for 15 min at 37° C./5% CO2. 20 μl of diluted ImmunoCult™ ([…] Technologies, 1:12.5 in T cell assay media) were added to all wells of the plate (1:50 final assay concentration). The plates were incubated for an additional 20 to 24 hrs at 37° C./5% CO2. The plates were centrifuged at 300×g for 10 minutes. 16 μL of supernatant was removed and combined with 4 μl of IL-2 HTRF Abs. (cisbio kit). Plates were incubated for 3 hours at RT and read with an EnVision plate reader at 665 nm and 615 nm wavelengths.

[2] = target: Tropomyosin receptor kinase A (TRKA, NTRK1) (Homo sapiens (Human), UniProt P04629); experiment: TRKA (NTRK1) enzyme Z'-LYTE assay; assay type: biochemical; conditions: arithmetic mean of count n; test compound 1 uM, ATP 1 mM
Sequence of Tropomyosin receptor kinase A (TRKA, NTRK1) (P04629 33-796): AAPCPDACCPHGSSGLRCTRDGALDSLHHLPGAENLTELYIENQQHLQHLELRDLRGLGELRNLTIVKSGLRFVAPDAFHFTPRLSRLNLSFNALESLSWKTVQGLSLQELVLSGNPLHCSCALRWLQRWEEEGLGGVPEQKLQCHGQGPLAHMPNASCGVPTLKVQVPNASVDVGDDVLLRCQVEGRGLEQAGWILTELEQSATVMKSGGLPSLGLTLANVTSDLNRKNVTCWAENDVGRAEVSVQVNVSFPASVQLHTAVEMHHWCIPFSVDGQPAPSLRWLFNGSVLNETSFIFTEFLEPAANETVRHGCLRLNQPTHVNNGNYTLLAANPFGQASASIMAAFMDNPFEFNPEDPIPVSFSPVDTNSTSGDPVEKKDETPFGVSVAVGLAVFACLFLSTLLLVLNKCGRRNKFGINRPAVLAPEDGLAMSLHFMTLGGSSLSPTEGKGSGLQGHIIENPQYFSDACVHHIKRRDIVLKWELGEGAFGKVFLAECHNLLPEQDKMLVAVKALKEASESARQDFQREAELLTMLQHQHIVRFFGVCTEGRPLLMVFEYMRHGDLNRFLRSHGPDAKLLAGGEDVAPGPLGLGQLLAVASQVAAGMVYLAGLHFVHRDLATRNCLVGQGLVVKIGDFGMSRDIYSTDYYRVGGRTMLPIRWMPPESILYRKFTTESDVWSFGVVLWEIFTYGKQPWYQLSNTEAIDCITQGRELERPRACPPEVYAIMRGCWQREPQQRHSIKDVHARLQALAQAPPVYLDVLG
Procedure: Tropomyosin Receptor Kinase a (TRKA) Activity, % Inhibition
TRKA, also known as neurotrophic tyrosine kinase receptor type 1 (NTKR1) activity was determined by measuring the effect of a test compound on the activity against the NTRK1 enzyme using the ThermoFisher Z'-LYTE Assay fluorescence-based coupled enzyme format (www.thermofisher.com/selectscreen). […] The resulting effect value for the tested compound was compared to the assay controls to determine the % inhibition (%).

| IC50 [1] [nM] | inhibition at 1 µM [2] [%] | SMILES |
| --- | --- | --- |
| 85 | 96 | C[C@@H](C(=O)N(C)c1cc(C#N)c2[nH]c(-c3n[nH]c4c3C[C@@H]3C[C@]3(C)C4)nc2c1)N1CCOCC1 [Example 38, (S)—N-(7-cyano-2-((4aS,5aR)-5a-methyl-1,4,4a,5,5a,6-hexahydrocyclopropa[f]indazol-3-yl)-1H-benzo[d]imidazol-5-yl)-N-methyl-2-morpholinopropanamide] |
| 103 | 96 | COc1cc(N(C)C(=O)[C@H](C)N2CCOCC2)cc2nc(-c3n[nH]c4c3C[C@@H]3C[C@]3(C)C4)[nH]c12 [Example 40, (S)—N-(7-methoxy-2-((4aS,5aR)-5a-methyl-1,4,4a,5,5a,6-hexahydrocyclopropa[f]indazol-3-yl)-1H-benzo[d]imidazol-5-yl)-N-methyl-2-morpholinopropanamide] |
| 176 | 96 | C[C@@H](C(=O)N(C)c1cc(C(F)(F)F)c2[nH]c(-c3n[nH]c4c3C[C@@H]3C[C@]3(C)C4)nc2c1)N1CCOCC1 [Example 41, (S)—N-methyl-N-(2-((4aS,5aR)-5a-methyl-1,4,4a,5,5a,6-hexahydrocyclopropa[f]indazol-3-yl)-7-(trifluoromethyl)-1H-benzo[d]imidazol-5-yl)-2-morpholinopropanamide] |
| 200 | 98 | COCc1cc(N(C)C(=O)[C@H](C)N2CCOCC2)cc2nc(-c3n[nH]c4c3C[C@@H]3C[C@]3(C)C4)[nH]c12 [Example 42, (S)—N-(7-(methoxymethyl)-2-((4aS,5aR)-5a-methyl-1,4,4a,5,5a,6-hexahydrocyclopropa[f]indazol-3-yl)-1H-benzo[d]imidazol-5-yl)-N-methyl-2-morpholinopropanamide] |
| 171 | 96 | C[C@@H](C(=O)N(C)c1cc(Cl)c2[nH]c(-c3n[nH]c4c3C[C@@H]3C[C@]3(C)C4)nc2c1)N1CCOCC1 [Example 43, (S)—N-(7-chloro-2-((4aS,5aR)-5a-methyl-1,4,4a,5,5a,6-hexahydrocyclopropa[f]indazol-3-yl)-1H-benzo[d]imidazol-5-yl)-N-methyl-2-morpholinopropanamide] |
| 219 | 94 | CCc1cc(N(C)C(=O)[C@H](C)N2CCOCC2)cc2nc(-c3n[nH]c4c3C[C@@H]3C[C@]3(C)C4)[nH]c12 [Example 44, (S)—N-(7-ethyl-2-((4aS,5aR)-5a-methyl-1,4,4a,5,5a,6-hexahydrocyclopropa[f]indazol-3-yl)-1H-benzo[d]imidazol-5-yl)-N-methyl-2-morpholinopropanamide] |
| 365 | 97 | C[C@@H](C(=O)N(C)c1cc(CO)c2[nH]c(-c3n[nH]c4c3C[C@@H]3C[C@]3(C)C4)nc2c1)N1CCOCC1 [Example 45, (S)—N-(7-(hydroxymethyl)-2-((4aS,5aR)-5a-methyl-1,4,4a,5,5a,6-hexahydrocyclopropa[f]indazol-3-yl)-1H-benzo[d]imidazol-5-yl)-N-methyl-2-morpholinopropanamide] |
| 161 | 98 | Cc1c(F)c(N(C)C(=O)[C@H](C)N2CCOCC2)cc2nc(-c3n[nH]c4c3C[C@@H]3C[C@]3(C)C4)[nH]c12 [Example 47, (S)—N-(6-fluoro-7-methyl-2-((4aS,5aR)-5a-methyl-1,4,4a,5,5a,6-hexahydrocyclopropa[f]indazol-3-yl)-1H-benzo[d]imidazol-5-yl)-N-methyl-2-morpholinopropanamide] |
| 207 | 95 | C[C@@H](C(=O)N(C)c1cc(C(F)F)c2[nH]c(-c3n[nH]c4c3C[C@@H]3C[C@]3(C)C4)nc2c1)N1CCOCC1 [Example 48, (S)—N-(7-(difluoromethyl)-2-((4aS,5aR)-5a-methyl-1,4,4a,5,5a,6-hexahydrocyclopropa[f]indazol-3-yl)-1H-benzo[d]imidazol-5-yl)-N-methyl-2-morpholinopropanamide] |
| 100 | 98 | COCCOc1cc2[nH]c(-c3n[nH]c4c3C[C@@H]3C[C@]3(C)C4)nc2cc1N(C)C(=O)[C@H](C)N1CCOCC1 [Example 49, (S)—N-(6-(2-methoxyethoxy)-2-((4aS,5aR)-5a-methyl-1,4,4a,5,5a,6-hexahydrocyclopropa[f]indazol-3-yl)-1H-benzo[d]imidazol-5-yl)-N-methyl-2-morpholinopropanamide] |
| 126 | 97 | Cc1cc(N(C)C(=O)[C@H](C)N2CCOCC2)cc2nc(-c3n[nH]c4c3C[C@@H]3C[C@]3(C)C4)[nH]c12 [Example 50, (S)—N-methyl-N-(7-methyl-2-((4aS,5aR)-5a-methyl-1,4,4a,5,5a,6-hexahydrocyclopropa[f]indazol-3-yl)-1H-benzo[d]imidazol-5-yl)-2-morpholinopropanamide] |
| 19 | 97 | Cc1cc(N(C)C(=O)[C@H](C)N2CCOCC2)cc2nc(-c3n[nH]c4c3C[C@@H]3C(F)(F)[C@]3(C)C4)[nH]c12 [Example 51, (S)—N-(2-((4aS,5aR)-5,5-difluoro-5a-methyl-1,4,4a,5,5a,6-hexahydrocyclopropa[f]indazol-3-yl)-7-methyl-1H-benzo[d]imidazol-5-yl)-N-methyl-2-morpholinopropanamide] |
| 274 | 109 | Cc1cc2[nH]c(-c3n[nH]c4c3C[C@@H]3C[C@]3(C)C4)nc2cc1NC(=O)[C@H](C)N1CCOCC1 [Example 52, (S)—N-(6-methyl-2-((4aS,5aR)-5a-methyl-1,4,4a,5,5a,6-hexahydrocyclopropa[f]indazol-3-yl)-1H-benzo[d]imidazol-5-yl)-2-morpholinopropanamide] |
| 41 | 89 | C[C@@H](C(=O)N(C)c1cc(C#N)c2[nH]c(-c3n[nH]c4c3C[C@@H]3C[C@]3(C)C4)nc2c1)C1CCOCC1 [Example 55, (R)—N-(7-cyano-2-((4aS,5aR)-5a-methyl-1,4,4a,5,5a,6-hexahydrocyclopropa[f]indazol-3-yl)-1H-benzo[d]imidazol-5-yl)-N-methyl-2-(tetrahydro-2H-pyran-4-yl)propanamide] |
